Test results reported in the supplement of paper PMC10307832.

Assays:
Assay in all cases: relative viability (nuclei count vs DMSO), 5 days (fraction); higher = more cells survive
Daporinad + OSI-027 = compound: O=C(/C=C/c1cccnc1)NCCCCC1CCN(C(=O)c2ccccc2)CC1 [Daporinad] + COc1cccc2cc(-c3nc([C@H]4CC[C@H](C(=O)O)CC4)n4ncnc(N)c34)[nH]c12 [OSI-027] (partner 0.5 µM)
In short: (§1)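 For relative viability, nuclei counts in treated wells were divided by those in vehicle wells. Lung cancer cell lines had been pin-tool dosed in 1536-well plates the day after seeding and cultured for 5 days, then fixed and stained in one step (final 0.05% Triton X-100, 1% formaldehyde, 1 ug/ml Hoechst) and imaged at 4×. Doses were one drug alone or a fixed anchor-drug dose plus five library-drug doses (not always all listed) in √10 steps, and values are duplicate-plate medians.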

Daporinad + Lapatinib = compound: O=C(/C=C/c1cccnc1)NCCCCC1CCN(C(=O)c2ccccc2)CC1 [Daporinad] + CS(=O)(=O)CCNCc1ccc(-c2ccc3ncnc(Nc4ccc(OCc5cccc(F)c5)c(Cl)c4)c3c2)o1 [Lapatinib] (partner 2 µM)
In short: as §1

Daporinad + Pemetrexed = compound: O=C(/C=C/c1cccnc1)NCCCCC1CCN(C(=O)c2ccccc2)CC1 [Daporinad] + Nc1nc2[nH]cc(CCc3ccc(C(=O)N[C@@H](CCC(=O)O)C(=O)O)cc3)c2c(=O)[nH]1 [Pemetrexed] (partner 0.2 µM)
In short: as §1

R406 + Foretinib = compound: COc1cc(Nc2ncc(F)c(Nc3ccc4c(n3)NC(=O)C(C)(C)O4)n2)cc(OC)c1OC [R406] + COc1cc2c(Oc3ccc(NC(=O)C4(C(=O)Nc5ccc(F)cc5)CC4)cc3F)ccnc2cc1OCCCN1CCOCC1 [Foretinib] (partner 0.25 µM)
In short: as §1

Row | Cell Line | relative viability (Daporinad + OSI-027; first compound 0.0005 µM) | relative viability (Daporinad + OSI-027; first compound 0.001581 µM) | relative viability (Daporinad + OSI-027; first compound 0.005 µM) | relative viability (Daporinad + OSI-027; first compound 0.01581 µM) | relative viability (Daporinad + Lapatinib; first compound 0.001581 µM) | relative viability (Daporinad + Lapatinib; first compound 0.005 µM) | relative viability (Daporinad + Lapatinib; first compound 0.01581 µM) | relative viability (Daporinad + Pemetrexed; first compound 0.0005 µM) | relative viability (Daporinad + Pemetrexed; first compound 0.001581 µM) | relative viability (Daporinad + Pemetrexed; first compound 0.005 µM) | relative viability (Daporinad + Pemetrexed; first compound 0.01581 µM) | relative viability (R406 + Foretinib; first compound 0.08 µM) | relative viability (R406 + Foretinib; first compound 0.253 µM) | relative viability (R406 + Foretinib; first compound 0.8 µM) | relative viability (R406 + Foretinib; first compound 2.53 µM) | relative viability (R406 + Foretinib; first compound 8 µM) | relative viability (Daporinad + Lapatinib; first compound 0.0005 µM)
1 | HOP-62 | 0.812 | 0.935 | 0.877 | 0.665 | 1.13 | 1.04 | 0.505 | 0.297 | 0.32 | 0.284 | 0.282 | 1.03 | 1.28 | 0.967 | 1.26 | 0.808 | 
2 | IA-LM |  |  |  |  | 0.771 | 0.664 | 0.876 |  |  |  |  | 1.23 | 1.43 | 0.958 | 1.36 | 1.02 | 1.02
3 | LC-2-ad | 0.832 | 1.12 | 1.06 | 1.01 | 1.03 | 0.936 | 0.972 | 0.263 | 0.27 | 0.285 | 0.256 | 0.899 | 1.03 | 0.903 | 0.7 | 0.547 | 0.959
4 | LCLC-97TM1 | 0.523 | 0.633 | 0.656 | 0.517 | 0.795 | 1.2 | 0.797 | 0.17 | 0.2 | 0.165 | 0.185 | 0.89 | 0.963 | 0.965 | 0.935 | 0.327 | 0.813
5 | LCLC-103H | 0.499 | 0.48 | 0.493 | 0.471 |  |  |  | 0.497 | 0.453 | 0.508 | 0.471 | 0.758 | 0.734 | 0.879 | 0.529 | 0.146 | 
6 | LK-2 | 0.225 | 0.241 | 0.18 | 0.192 | 0.967 | 0.546 | 0.324 | 0.314 | 0.331 | 0.188 | 0.142 | 1.14 | 1.45 | 1.1 | 0.888 | 0.344 | 0.877
7 | LOU-NH91 | 0.732 | 0.779 | 0.772 | 0.83 | 0.788 | 0.932 | 0.952 | 0.383 | 0.359 | 0.509 | 0.482 | 0.918 | 0.975 | 0.918 | 0.518 | 0.475 | 0.767
8 | LU99A | 0.33 | 0.282 | 0.358 | 0.305 | 1.14 | 0.98 | 1.17 | 0.165 | 0.142 | 0.18 | 0.156 | 0.801 | 0.794 | 0.914 | 0.588 | 0.345 | 0.839
9 | LXF-289 | 0.731 | 0.855 | 0.89 | 0.89 | 0.989 | 0.91 | 0.95 | 0.837 | 0.978 | 0.937 | 0.889 | 1.01 | 1.03 | 0.969 | 0.999 | 0.238 | 0.847
10 | NCI-H23 | 0.544 | 0.472 | 0.637 | 0.545 | 0.987 | 0.94 | 0.41 | 0.797 | 0.562 | 0.767 | 0.31 | 0.989 | 1.05 | 0.977 |  | 0.206 | 1.17
11 | NCI-H322M | 0.526 | 0.617 | 0.613 | 0.52 | 0.671 | 0.584 | 0.597 | 0.638 | 0.634 | 0.635 | 0.46 | 0.962 | 0.917 | 1.03 | 0.547 | 0.559 | 0.648
12 | NCI-H358 | 0.664 | 0.794 | 0.886 | 0.77 | 0.634 | 0.533 | 0.451 | 0.199 | 0.168 | 0.183 | 0.185 | 0.75 | 0.795 | 0.886 | 0.335 | 0.156 | 0.359
13 | NCI-H441 | 0.552 | 0.856 | 0.805 | 0.671 |  |  |  | 0.242 | 0.243 | 0.268 | 0.291 | 0.863 | 1.13 | 1.18 | 0.718 | 0.406 | 
14 | NCI-H460 | 0.754 | 0.762 | 0.73 | 0.697 | 1.15 | 1.08 | 1.04 | 0.0681 | 0.0617 | 0.0618 | 0.0602 | 0.887 | 1.13 | 1.16 | 1.07 | 0.781 | 0.797
15 | NCI-H522 | 0.612 | 0.942 | 0.762 | 0.667 |  |  |  | 0.983 | 1.3 | 1.09 | 0.668 |  |  |  |  |  | 
16 | NCI-H727 | 0.603 | 0.606 | 0.622 | 0.519 | 0.831 | 0.853 | 0.76 |  |  |  |  | 0.954 | 0.841 | 0.851 | 0.752 | 0.697 | 0.968
17 | NCI-H1299 |  |  |  |  | 0.954 | 0.955 | 1.05 |  |  |  |  | 1.01 | 1.14 | 1.07 | 1.2 | 1.02 | 0.956
18 | NCI-H1623 | 0.413 | 0.439 | 0.466 | 0.475 |  |  |  |  |  |  |  | 0.931 | 0.952 | 0.962 | 0.806 | 0.849 | 
19 | NCI-H1648 | 0.231 | 0.26 | 0.262 | 0.244 |  |  |  | 0.596 | 0.617 | 0.843 | 0.769 |  |  |  |  |  | 
20 | NCI-H1703 |  |  |  |  | 1.22 | 0.845 | 0.402 |  |  |  |  | 0.346 | 0.327 | 0.323 | 0.228 | 0.218 | 1.39
21 | NCI-H1792 | 0.668 | 0.655 | 0.541 | 0.893 | 0.987 | 0.838 | 0.932 | 0.721 | 1.02 | 0.76 | 0.674 |  |  |  |  |  | 0.837
22 | NCI-H2342 | 0.674 | 0.552 | 0.602 | 0.613 |  |  |  | 0.782 | 0.739 | 0.862 | 0.819 | 0.889 | 1.21 | 1.22 | 0.863 | 0.88 | 
23 | SW 900 | 0.42 | 0.475 | 0.745 | 0.463 |  |  |  | 0.486 |  | 0.506 | 0.496 | 0.769 | 0.779 | 0.915 | 0.754 | 0.519 | 
